In EP0964864B1, “PYRIDO 2,3-D PYRIMIDINES AND 4-AMINOPYRIMIDINES AS INHIBITORS OF CELLULAR PROLIFERATION” (priority 1997, dated 1998):

Assays:
[1] = biological target: PDGF-β receptor tyrosine kinase; test: PDGF receptor tyrosine kinase assay; type: biochemical, mouse
[2] = biological target: FGF-1 (flg) receptor tyrosine kinase; test: FGF receptor tyrosine kinase assay; type: biochemical, human

CCNc1nc(Nc2ccccc2)ncc1C=CC(=O)OCC [Example 17, Ethyl 3-(4-Ethylamino-2-phenylamino-pyrimidin-5-yl)acrylate]
IC50 [1]: 3.7 µM | IC50 [2]: 4.5 µM
